According to article PMC3469756 (Journal of medicinal chemistry, 2012):
Like-named read-outs stand apart in the source and are kept apart here.

B1: PDE9A2 catalytic domain (residues 181-506) (domain or fragment, UniProt O76083-2 181-506, looked up)
chain: PTYPKYLLSPETIEALRKPTFDVWLWEPNEMLSCLEHMYHDLGLVRDFSINPVTLRRWLFCVHDNYRNNPFHNFRHCFCVAQMMYSMVWLCSLQEKFSQTDILILMTAAICHDLDHPGYNNTYQINARTELAVRYNDISPLENHHCAVAFQILAEPECNIFSNIPPDGFKQIRQGMITLILATDMARHAEIMDSFKEKMENFDYSNEEHMTLLKMILIKCCDISNEVRPMEVAEPWVDCLLEEYFMQSDREKSEGLPVAPFMDRDKVTKATAQIGFIKFVLIPMFETVTKLFPMVEEIMLQPLWESRDRYEELKRIDDAMKELQKK

Experiments:
[1] = tested on: PDE1C; conditions: PDE9 versus PDE1C, cited from earlier work
[2] = molecular target: the molecule itself; assay: crystal structure

| Molecule | selectivity against PDE1C [1] [fold] | selectivity against PDE1C ([1]; listed as PF-04447943) | binding result [2] |
| --- | --- | --- | --- |
| C[C@@H]1CN(Cc2ncccn2)C[C@H]1c1nc2c(cnn2C2CCOCC2)c(=O)[nH]1 [compound 9, 6-[(3S,4S)-4-methyl-1-(pyrimidin-2-ylmethyl)pyrrolidin-3-yl]-1-(tetrahydro-2H-pyran4-yl)-1,5-dihydro-4H-pyrazolo[3,4-d]pyrimidin-4-one] | 170 | about 170 fold | – |
| B1 | – | – | binds |
